From US11834434B2, “Substituted 2-heteroaryloxypyridines and salts thereof and their use as herbicidal agents” (Bayer Aktiengesellschaft, priority 2018, dated 2023)

Assays:
Assay type in all cases: in vivo
[1] = test system: Abutilon theophrasti (ABUTH); test: Post-emergence herbicidal action against Abutilon theophrasti; conditions: 1280 g/ha; rated visually after about 3 weeks vs untreated controls; 100% = plants have died, 0% = like control plants
Procedure: (§1) Seeds of mono- and dicotyledonous weed plants were placed in plastic pots in sandy loam soil (doubly sown with in each case one species of mono- or dicotyledonous weed plants per pot), covered with soil and cultivated in a greenhouse under controlled growth conditions. 2 to 3 weeks after sowing, the test plants were treated at the one-leaf stage. The compounds of the invention, formulated in the form of wettable powders (WP) or as emulsion concentrates (EC), were applied onto the green parts of the plants as aqueous suspension or emulsion with addition of 0.5% additive at a water application rate of 600 liters per hectare (converted). After the test plants had been kept in the greenhouse under optimum growth conditions for about 3 weeks, the activity of the preparations was rated visually in comparison to untreated controls. For example, 100% activity=the plants have died, 0% activity=like control plants. Tables B1 to B8 below show the effects of selected compounds of the general formula (I) according to Table 1 on various harmful plants and an application rate corresponding to 1280 g/ha, which were obtained by the experimental procedure mentioned above.

[2] = test system: Amaranthus retroflexus (AMARE); test: Pre-emergence herbicidal action against Amaranthus retroflexus; conditions: 1280 g/ha; scored visually after about 3 weeks vs untreated controls; 100% = plants have died, 0% = like control plants
Text: (§2) Seeds of mono- and dicotyledonous weed plants were placed in plastic pots in sandy loam soil (doubly sown with in each case one species of mono- or dicotyledonous weed plants per pot) and covered with soil. The compounds of the invention, formulated in the form of wettable powders (WP) or as emulsion concentrates (EC), were then applied onto the surface of the covering soil as aqueous suspension or emulsion with addition of 0.5% additive at a water application rate of 600 liters per hectare (converted). After the treatment, the pots were placed in a greenhouse and kept under good growth conditions for the test plants. After about 3 weeks, the effect of the preparations was scored visually in comparison with untreated controls as percentages. For example, 100% activity=the plants have died, 0% activity=like control plants. Tables C1 to C8 below show the effects of selected compounds of the general formula (I) according to Table 1 on various harmful plants and an application rate corresponding to 1280 g/ha, which were obtained by the experimental procedure mentioned above.

Poa annua (POAAN) [3] = test: Post-emergence herbicidal action against Poa annua; conditions: 1280 g/ha; rated visually after about 3 weeks vs untreated controls; 100% = plants have died, 0% = like control plants
Procedure: as §1

[4] = test system: Abutilon theophrasti (ABUTH); test: Pre-emergence herbicidal action against Abutilon theophrasti; conditions: 1280 g/ha; scored visually after about 3 weeks vs untreated controls; 100% = plants have died, 0% = like control plants
Text: as §2

[5] = test system: Amaranthus retroflexus (AMARE); test: Post-emergence herbicidal action against Amaranthus retroflexus; conditions: 1280 g/ha; rated visually after about 3 weeks vs untreated controls; 100% = plants have died, 0% = like control plants
Procedure: as §1

Setaria viridis (SETVI) = test: Pre-emergence herbicidal action against Setaria viridis; conditions: 1280 g/ha; scored visually after about 3 weeks vs untreated controls; 100% = plants have died, 0% = like control plants
Text: as §2

Poa annua (POAAN) [6] = test: Pre-emergence herbicidal action against Poa annua; conditions: 1280 g/ha; scored visually after about 3 weeks vs untreated controls; 100% = plants have died, 0% = like control plants
Text: as §2

[7] = test system: Echinochloa crus-galli (ECHCG); test: Pre-emergence herbicidal action against Echinochloa crus-galli; conditions: 1280 g/ha; scored visually after about 3 weeks vs untreated controls; 100% = plants have died, 0% = like control plants
Text: as §2

Stellaria media (STEME) [8] = test: Pre-emergence herbicidal action against Stellaria media; conditions: 1280 g/ha; scored visually after about 3 weeks vs untreated controls; 100% = plants have died, 0% = like control plants
Text: as §2

Stellaria media (STEME) [9] = test: Post-emergence herbicidal action against Stellaria media; conditions: 1280 g/ha; rated visually after about 3 weeks vs untreated controls; 100% = plants have died, 0% = like control plants
Procedure: as §1

Lolium rigidum (LOLRI) = test: Pre-emergence herbicidal action against Lolium rigidum; conditions: 1280 g/ha; scored visually after about 3 weeks vs untreated controls; 100% = plants have died, 0% = like control plants
Text: as §2

[10] = test system: Matricaria inodora (MATIN); test: Pre-emergence herbicidal action against Matricaria inodora; conditions: 1280 g/ha; scored visually after about 3 weeks vs untreated controls; 100% = plants have died, 0% = like control plants
Text: as §2

[11] = test system: Echinochloa crus-galli (ECHCG); test: Post-emergence herbicidal action against Echinochloa crus-galli; conditions: 1280 g/ha; rated visually after about 3 weeks vs untreated controls; 100% = plants have died, 0% = like control plants
Procedure: as §1

SMILES	Post-emergence action against Abutilon theophrasti (ABUTH) [1]	Pre-emergence action against Amaranthus retroflexus (AMARE) [2]	Post-emergence action against Poa annua (POAAN) (Poa annua (POAAN) [3])	Pre-emergence action against Abutilon theophrasti (ABUTH) [4]	Post-emergence action against Amaranthus retroflexus (AMARE) [5]	Pre-emergence action against Setaria viridis (SETVI) (Setaria viridis (SETVI))	Pre-emergence action against Poa annua (POAAN) (Poa annua (POAAN) [6])	Pre-emergence action against Echinochloa crus-galli (ECHCG) [7]	Pre-emergence action against Stellaria media (STEME) (Stellaria media (STEME) [8])	Post-emergence action against Stellaria media (STEME) (Stellaria media (STEME) [9])	Pre-emergence action against Lolium rigidum (LOLRI) (Lolium rigidum (LOLRI))	Pre-emergence action against Matricaria inodora (MATIN) [10]	Post-emergence action against Echinochloa crus-galli (ECHCG) [11]
COc1c(F)ccc(Cc2c(C)cc(C)nc2Oc2ncc(F)cn2)c1F [Example I-488]	100%	100%	90%	100%	100%	100%	100%	100%	100%	100%	100%	100%	
Cc1ccc(Cc2c(C)cc(C)nc2Oc2ncc(F)cn2)cc1 [Example I-486]	90%	100%	100%	100%	90%	100%	100%	100%	100%	100%	90%		
Cc1ccc(Cc2ccccc2)c(Oc2ncc(Cl)cn2)n1 [Example I-397]	90%	90%	100%	100%		100%	100%	100%	100%	100%	100%	100%	
Cc1ccc(Oc2ccc(Cl)cc2)c(Oc2ncc(Cl)cn2)n1 [Example I-504]		100%	100%	90%	100%	100%	90%		100%	100%	90%	90%	90%
Cc1ccc(Oc2ccccc2)c(Oc2ncc(F)cn2)n1 [Example I-511]	90%	100%	100%	100%	100%	100%	100%	100%	100%	100%	90%	100%	
Cc1cc(C)c(Cc2ccc(C)c(F)c2)c(Oc2ncc(F)cn2)n1 [Example I-483]	90%	100%	90%	100%	90%	100%	100%	90%	100%	100%	90%	100%	
Cc1ccnc(Oc2ncccn2)c1Sc1cccc(Cl)c1 [Example I-212]		100%	100%	100%		100%	100%	100%	100%	100%	100%	100%	100%
Cc1ccc(Oc2ccc(Cl)cc2)c(Oc2ncc(F)cn2)n1 [Example I-515]		100%	100%	100%	100%	100%	100%	100%	100%	100%	90%	100%	100%
Fc1cnc(Oc2ncccc2Sc2cccc(Cl)c2)nc1 [Example I-158]		100%			100%	90%	90%		100%	100%			100%
Cc1cc(C)c(Cc2ccc(Cl)c(F)c2)c(Oc2ncc(F)cn2)n1 [Example I-485]	90%	100%	90%	100%	100%	100%	100%	90%	100%	100%	90%	100%	
Cc1cc(C)c(Cc2ccc(Cl)cc2)c(Oc2ncc(F)cn2)n1 [Example I-482]	90%	100%	100%	100%	100%	100%	100%	100%	100%	100%	100%	100%	
Cc1ccc(Cc2ccc(F)cc2F)c(Oc2ncc(F)cn2)n1 [Example I-433]	90%	100%	100%	100%	90%	100%	100%	100%	100%	100%	90%	100%	
